{
  "source": "ChEMBL document CHEMBL1129242",
  "about": "“(2E)-5-[3-[(phenylsulfonyl)amino]phenyl]-pent-2-en-4-ynohydroxamic acid and its derivatives as novel and potent inhibitors of ras transformation” (1996)",
  "data": [
    {"system": "NIH3T3", "assay": "Minimum inhibitory concentration for the inhibition of transformation in ras- transformed cells(ras/ NIH3T3)", "type": "functional", "settings": "Mus musculus", "units": {"MIC": "µM"}, "values": [
      {"smiles": "O=C(CCCC/C=C/c1ccccc1NS(=O)(=O)c1ccccc1)NO", "MIC": 4.3},
      {"smiles": "O=C(/C=C/C=C/c1ccc(NS(=O)(=O)c2ccccc2)cc1)NO", "MIC": 1.6},
      {"smiles": "COc1ccc(S(=O)(=O)Nc2cccc(C#C/C=C/C(=O)NO)c2)cc1", "MIC": 0.08},
      {"smiles": "O=C(CCCC/C=C\\c1ccccc1NS(=O)(=O)c1ccccc1)NO", "MIC": 17},
      {"smiles": "O=C(/C=C/C=C/c1ccccc1NS(=O)(=O)c1ccccc1)NO", "MIC": 1.6},
      {"smiles": "O=C(/C=C/C=C/c1cc2ccccc2cc1NS(=O)(=O)c1ccccc1)NO", "MIC": 0.32},
      {"smiles": "O=C(/C=C/C#Cc1cccc(NS(=O)(=O)c2ccc([N+](=O)[O-])cc2)c1)NO", "MIC": 0.64},
      {"smiles": "O=C(/C=C/C#Cc1cccc(NS(=O)(=O)c2ccc(Br)cc2)c1)NO", "MIC": 0.16},
      {"smiles": "O=C(/C=C/C=C/c1cccc(NS(=O)(=O)c2ccccc2)c1)NO", "MIC": 0.3},
      {"smiles": "Cc1ccc(S(=O)(=O)Nc2cccc(C#C/C=C/C(=O)NO)c2)cc1", "MIC": 0.16},
      {"smiles": "O=C(/C=C/C#Cc1cccc(NS(=O)(=O)c2ccc(F)cc2)c1)NO", "MIC": 0.08},
      {"smiles": "O=C(/C=C/C#Cc1cccc(NS(=O)(=O)c2ccc3ccccc3c2)c1)NO", "MIC": 0.08},
      {"smiles": "CN(c1cccc(/C=C/C=C/C(=O)NO)c1)S(=O)(=O)c1ccccc1", "MIC": 0.6},
      {"smiles": "O=C(/C=C/C=C/c1cc2ccccc2n1S(=O)(=O)c1ccccc1)NO", "MIC": 0.4},
      {"smiles": "CN(c1ccccc1/C=C/C=C/C(=O)NO)S(=O)(=O)c1ccccc1", "MIC": 0.8}
    ]},
    {"system": "NIH3T3", "assay": "Minimum inhibitory concentration for the inhibition of transformation in ras- transformed cells(ras/ NIH3T3); Not effective at the highest concentration tested (100 uM)", "type": "functional, cell-based", "settings": "Mus musculus", "values": [
      {"smiles": "O=C(/C=C/C#CC#Cc1cccc(NS(=O)(=O)c2ccccc2)c1)NO", "MIC": "Not effective at the highest concentration tested (100 uM)"}
    ]}
  ]
}
